Assay results from patent US4755598A, “1 '-(substituted)ethyl-7β-[2-(2-aminothiazol-4-yl)acetamido]-3-[[[1-(2 -dimethylaminoethyl)-1H-tetrazol-5-yl]thio]methyl]ceph-3-em-4-carboxylate derivatives having antibacterial utility” (Takeda Chemical Industries, Ltd., priority 1983, dated 1988).
Read-outs that look alike come from different tables or passages of the source.

What was measured:
[1] = test system: gram-negative bacteria such as Escherichia coli, Klebsiella pneumoniae, Proteus vulgaris, Proteus mirabilis and Proteus morganii; settings: cited from earlier work
[2] = test system: gram-positive bacteria such as Staphylococcus aureus; settings: cited from earlier work
bacteria = settings: cited from earlier work
[3] = mouse, in vivo; for Plasma level of non-ester compound / AUC: po, 100 mg/kg
Description: The compounds of Examples 2, 4, 6, 7 and 8 and the 1-(ethoxycarbonyloxy)ethyl ester of compound [II] (briefly, compound A) are each administered orally to a mouse in a dose of 100 mg/kg in terms of non-ester compound, i.e., compound [II]. At 0.25, 0.5, 1.0 and 2.0 hours after administration, the concentration of the non-ester compound in the mouse plasma is determined by the cup assay using Proteus mirabilis Eb313 as the test organism and the area under the concentration-time curve for 0-2 hours (AUC) is calculated.
As control, the non-ester compound is administered subcutaneously to a mouse and the AUC value is similarly calculated.

| Structure (SMILES) | antibacterial activity [1] | antibacterial activity [2] | antibacterial activity (bacteria) | Bioavailability ([3]; sc, 120 min) [%] | Bioavailability ([3]; 120 min) [%] | Plasma level of non-ester compound ([3]; 15 min) [ng/mL] | Plasma level of non-ester compound ([3]; 30 min) [ng/mL] | Plasma level of non-ester compound ([3]; 60 min) [ng/mL] | AUC ([3]; 120 min) [ng·h/mL] | Plasma level of non-ester compound ([3]; 120 min) [ng/mL] |
| --- | --- | --- | --- | --- | --- | --- | --- | --- | --- | --- |
| CN(C)CCn1nnnc1SCC1=C(C(=O)O)N2C(=O)[C@@H](NC(=O)Cc3csc(N)n3)[C@H]2SC1 [compound [II], 7β-[2-(2-aminothiazol-4-yl)acetamido]-3-[[[1-(2-dimethylaminoethyl]-1H-tetrazol-5-yl]thio]methyl]ceph-3-em-4-carboxylic acid] | potent antibacterial activity | potent antibacterial activity | strong antibacterial activity | 100 |  |  |  |  |  |  |
| CCCC(C)COC(=O)OC(C)OC(=O)C1=C(CSc2nnnn2CCN(C)C)CS[C@@H]2[C@H](NC(=O)Cc3csc(N)n3)C(=O)N12 (stereo partly drawn) [Example 6, 1-(2-Methylpentyloxycarbonyloxy)ethyl 7β-[2-(2-aminothiazol-4-yl)acetamido]-3-[[[1-(2-dimethylaminoethyl)-1H-tetrazol-5-yl]thio]methyl]ceph-3-em-4-carboxylate] |  |  |  |  | 80.1 | 50200 | 31000 | 7310 | 31100 | 2860 |
| CC(C)CCOC(=O)OC(C)OC(=O)C1=C(CSc2nnnn2CCN(C)C)CS[C@@H]2[C@H](NC(=O)Cc3csc(N)n3)C(=O)N12 (stereo partly drawn) [Example 2, 1-(3-Methylbutoxycarbonyloxy)ethyl 7β-[2-(2-aminothiazol-4-yl)acetamido]-3-[[[1-(2-dimethylaminoethyl)-1H-tetrazol-5-yl]thio]methyl]ceph-3-em-4-carboxylate] |  |  |  |  | 90.8 | 65800 | 28600 | 9660 | 35300 | 1680 |
| CCOC(=O)OC(C)OC(=O)C1=C(CSc2nnnn2CCN(C)C)CS[C@@H]2[C@H](NC(=O)Cc3csc(N)n3)C(=O)N12 (stereo partly shown) [Compound A, 1-(ethoxycarbonyloxy)ethyl ester of compound [II], reference compound] |  |  |  |  | 23.9 | 14700 | 9200 | 2400 | 9280 | 700 |
| CCCC(C)OC(=O)OC(C)OC(=O)C1=C(CSc2nnnn2CCN(C)C)CS[C@@H]2[C@H](NC(=O)Cc3csc(N)n3)C(=O)N12 (stereo partly drawn) [Example 8, 1-(1-Methylbutoxycarbonyloxy)ethyl 7β-[2-(2-aminothiazol-4-yl)acetamido]-3-[[[1-(2-dimethylaminoethyl)-1H-tetrazol-5-yl]thio]methyl]ceph-3-em-4-carboxylate] |  |  |  |  | 110.6 | 62700 | 48900 | 11200 | 42500 | 860 |
| CC(OC(=O)OCC(C)(C)C)OC(=O)C1=C(CSc2nnnn2CCN(C)C)CS[C@@H]2[C@H](NC(=O)Cc3csc(N)n3)C(=O)N12 (stereo partly drawn) [Example 7, 1-(2,2-Dimethylpropoxycarbonyloxy)ethyl 7β-[2-(2-aminothiazol-4-yl)acetamido]-3-[[[1-(2-dimethylaminoethyl)-1H-tetrazol-5-yl]thio]methyl]ceph-3-em-4-carboxylate] |  |  |  |  | 92.0 | 65700 | 34500 | 7230 | 35700 | 1860 |
| CCC(CC)COC(=O)OC(C)OC(=O)C1=C(CSc2nnnn2CCN(C)C)CS[C@@H]2[C@H](NC(=O)Cc3csc(N)n3)C(=O)N12 (stereo partly drawn) [Example 4, 1-(2-Ethylbutoxycarbonyloxy)ethyl 7β-[2-(2-aminothiazol-4-yl)acetamido]-3-[[[1-(2-dimethylaminoethyl)-1H-tetrazol-5-yl]thio]methyl]ceph-3-em-4-carboxylate] |  |  |  |  | 83.6 | 43900 | 39500 | 8730 | 32400 | 220 |
